Patent US20080194653A1, “Therapeutic Agent For Solid Tumor” (KYOWA HAKKO KOGYO CO., LTD., priority 2005, published 2008)
Where a name gives a salt, the structure may show the parent alone.

How the values were obtained:
[1] = biological target: T1, recombinant human Eg5 motor domain protein (Homo sapiens, UniProt P52732); experiment: Eg5 enzyme inhibition test (ATPase activity); assay type: biochemical; settings: for IC50: 30° C., 30 minutes, absorbance at 360 nm, read-out: Inhibition ratios (IC50) on the ATPase activity of Eg5
T1 construct: A plasmid expressing the motor domain of human Eg5 was constructed; made in house; host or cells: Escherichia coli BL21 (DE3)
T1 sequence (P52732 18-359 limits assumed): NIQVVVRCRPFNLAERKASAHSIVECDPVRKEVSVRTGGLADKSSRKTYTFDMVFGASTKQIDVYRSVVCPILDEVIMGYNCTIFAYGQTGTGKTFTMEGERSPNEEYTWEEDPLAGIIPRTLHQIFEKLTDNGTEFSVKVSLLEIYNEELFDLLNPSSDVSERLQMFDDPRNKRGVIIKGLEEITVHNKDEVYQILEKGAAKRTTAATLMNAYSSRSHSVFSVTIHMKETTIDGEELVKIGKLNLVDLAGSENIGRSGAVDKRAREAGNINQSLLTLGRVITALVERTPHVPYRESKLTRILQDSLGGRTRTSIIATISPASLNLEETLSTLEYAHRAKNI
Method: A recombinant human Eg5 motor domain protein was prepared by referring to the literature [Biochemistry, Vol. 35, p. […] A plasmid expressing the motor domain of human Eg5 was constructed, and transformed into Escherichia coli BL21 (DE3). The transformant was cultured at 25° C., and when the OD600 reached 0.74, isopropyl-β-D-thiogalactoside was added at a final concentration of 0.5 mmol/L. The transformant was further cultured for 4 hours, and then the culture medium was centrifuged to collect the cells. The cells were suspended in a buffer and ultrasonicated, and then the sonicated solution was centrifuged to recover the supernatant. The supernatant was purified by cation exchange column chromatography to obtain a partially purified sample. Furthermore, the partially purified sample was purified by gel filtration column chromatography to obtain a finally purified sample.
Measurement of the ATPase activity of Eg5 was carried out by referring to the literatures [EMBO Journal, Vol. 13, p. […] Solution A was dispensed into each well of a 96-well plate as 45 μL portions. Solution B was used to serially dilute a test compound. The diluted test compound solutions in a volume of 30 μL were mixed with Solution A added beforehand in each well of the 96-well plate to start the enzymatic reaction. The enzymatic reaction was performed at 30° C. for 30 minutes. […] The relative activity was calculated to calculate IC50 value.

[2] = test system: human colon cancer HCT 116 cells; experiment: Cell growth inhibition test against colon cancer cells (XTT); assay type: cell-based; settings: read-out: GI50 value (concentration of 50% growth inhibition), 72 hours
Method: (§1) As cancer cell lines, human lung cancer A549 cells (ATCC No. CCL-185), human ovarian cancer SK-OV-3 cells (ATCC No. HTB-77), and human colon cancer HCT 116 cells (ATCC No. CCL-247) were used. For the culture of A549 cells, Nutrient Mixture F-12K medium (Invitrogen, catalog No. 21127-022) containing 10% fetal bovine serum (Invitrogen, catalog No. 10099-141), 100 units/mL penicillin (Invitrogen, catalog No. 15140-122), and 100 μg/mL streptomycin (Invitrogen, catalog No. 15140-122) was used. For the culture of SK-OV-3 cells and HCT 116 cells, McCoy's 5A medium (Invitrogen, catalog No. 16600-082) containing 10% fetal bovine serum (Invitrogen, catalog No. 10099-141), 100 units/mL penicillin (Invitrogen, catalog No. 15140-122), and 100 μg/mL streptomycin (Invitrogen, catalog No. 15140-122) was used. The cells were cultured at 37° C. in a 5% carbon dioxide atmosphere.
(§2) A549 cells (1000 cells/well), SK-OV-3 cells (2000 cells/well), or HCT 116 cells (1000 cells/well) were seeded in each well of 96-well plates (Nunc, catalog No. 167008), and cultured overnight. Test compounds diluted stepwise were added, and the cells were further cultured for 72 hours (final volume: 100 μL/well). Fifty μL XTT labeling mixture of Cell Proliferation Kit II (XTT) (Roche Diagnostics, catalog No. 1465015) was added to each well, and the plates were incubated at 37° C. After 1 to 3 hours, absorbance at 490 nm (reference wavelength: 655 nm) was measured with a plate reader (Molecular Device, SpectraMax 340PC^384). Growth ratios of the cells in the wells treated with the test compounds were calculated based on the growth ratio of the cells in the control well treated with solvent (dimethyl sulfoxide (DMSO)) for 72 hours, which was defined as 100%.

[3] = test system: human renal cancer 786-0 cells; experiment: Cell growth inhibition test against renal cancer cells (XTT); assay type: cell-based; settings: read-out: GI50 value (concentration of 50% growth inhibition)
Method: as §2
(§3) As cancer cell lines, human pancreatic cancer MIA PaCa-2 cells (JCRB No. 0070), human cervical cancer HeLa cells (ATCC No. CCL-2), human breast cancer MDA-MB-468 cells (ATCC No. HTB-132), human prostate cancer DU 145 cells (ATCC No. HTB-81), human skin cancer SK-MEL-28 cells (ATCC No. HTB-72), human head and neck cancer KB cells (JCRB No. 9027), human renal cancer 786-0 cells (ATCC No. CRL-1932), and human liver cancer Hep G2 cells (ATCC No. HB-8065) were used. The cells were cultured at 37° C. in a 5% carbon dioxide atmosphere (except for the human breast cancer MDA-MB-468 cells, which were cultured under the condition at 37° C.) by using the mediums mentioned below, respectively.
(§4) In the same manner as that in Test Example 1, the cells were seeded (500 to 4000 cells/well, respectively) in each well of 96-well plates (Nunc, catalog No. 167008), and growth ratios of the cells treated with test compounds were calculated. The measurement of absorbance was performed at 1.5 to 3 hours after the addition of the XTT labeling mixture.

[4] = test system: human skin cancer SK-MEL-28 cells; experiment: Cell growth inhibition test against skin cancer cells (XTT); assay type: cell-based; settings: read-out: GI50 value (concentration of 50% growth inhibition)
Method: as §2, §3, §4

[5] = test system: human liver cancer Hep G2 cells; experiment: Cell growth inhibition test against liver cancer cells (XTT); assay type: cell-based; settings: HepG2, read-out: GI50 value (concentration of 50% growth inhibition)
Method: as §2, §3, §4

[6] = test system: human lung cancer A549 cells; experiment: Cell growth inhibition test against lung cancer cells (XTT); assay type: cell-based; settings: read-out: GI50 value (concentration of 50% growth inhibition), 72 hours
Method: as §1, §2

[7] = test system: human ovarian cancer SK-OV-3 cells; experiment: Cell growth inhibition test against ovarian cancer cells (XTT); assay type: cell-based; settings: read-out: GI50 value (concentration of 50% growth inhibition), 72 hours
Method: as §1, §2

[8] = test system: human head and neck cancer KB cells; experiment: Cell growth inhibition test against head and neck cancer cells (XTT); assay type: cell-based; settings: read-out: GI50 value (concentration of 50% growth inhibition)
Method: as §2, §3, §4

[9] = test system: human prostate cancer DU 145 cells; experiment: Cell growth inhibition test against prostate cancer cells (XTT); assay type: cell-based; settings: read-out: GI50 value (concentration of 50% growth inhibition)
Method: as §2, §3, §4

[10] = test system: human cervical cancer HeLa cells; experiment: Cell growth inhibition test against cervical cancer cells (XTT); assay type: cell-based; settings: read-out: GI50 value (concentration of 50% growth inhibition)
Method: as §2, §3, §4

[11] = test system: human breast cancer MDA-MB-468 cells; experiment: Cell growth inhibition test against breast cancer cells (XTT); assay type: cell-based; settings: read-out: GI50 value (concentration of 50% growth inhibition)
Method: as §2, §3, §4

[12] = test system: human pancreatic cancer MIA PaCa-2 cells; experiment: Cell growth inhibition test against pancreatic cancer cells (XTT); assay type: cell-based; settings: read-out: GI50 value (concentration of 50% growth inhibition)
Method: as §2, §3, §4

With `CC(C)(C)C(=O)NC1=NN(C(=O)C(C)(C)C)C(CN)(c2ccccc2)S1` (stereo not shown) (as salt: hydrochloride) [Compound j, N-[5-Aminomethyl-4-(2,2-dimethylpropionyl)-5-phenyl-4,5-dihydro-1,3,4-thiadiazol-2-yl]-2,2-dimethylpropanamide] the melting point was 175 to 182 °C.

For `CCNCCS(=O)(=O)NCCC1(c2ccccc2)SC(NC(=O)C(C)(C)C)=NN1C(=O)C(C)(C)C` (racemic) [Compound 14, N-{4-(2,2-Dimethylpropionyl)-5-[2-(2-ethylaminoethanesulfonylamino)ethyl]-5-phenyl-4,5-dihydro-1,3,4-thiadiazol-2-yl}-2,2-dimethylpropanamide], the “Inhibition of the ATPase activity of Eg5 (in words)” value (“Inhibition” for short) [1] was “inhibited the ATPase activity of Eg5 in a concentration-dependent manner”.

Compound `CCNCCS(=O)(=O)NCCC1(c2ccccc2)SC(NC(=O)C(C)(C)C)=NN1C(=O)C(C)(C)C` (single isomer, unassigned) [Compound i, N-{4-(2,2-Dimethylpropionyl)-5-[2-(2-ethylaminoethanesulfonylamino)ethyl]-5-phenyl-4,5-dihydro-1,3,4-thiadiazol-2-yl}-2,2-dimethylpropanamide] has a GI50 [2] of less than 0.1 µM, a GI50 [3] of less than 10 µM and a GI50 [4] of less than 10 µM. It also gave a GI50 [5] of less than 10 µM, a GI50 [6] of less than 10 µM and a GI50 [7] of less than 10 µM. For the same compound, the GI50 [8] was less than 10 µM, the “Inhibition” value [1] was “inhibited the ATPase activity of Eg5 in a concentration-dependent manner” and the IC50 [1] was less than 0.1 µM. The GI50 [9] was less than 10 µM, the GI50 [10] was less than 10 µM and the GI50 [11] was less than 10 µM. For the same compound, the GI50 [12] was less than 10 µM.

In the case of `CCC(=O)N1N=C(NC(=O)C(C)(C)C)SC1(CCNS(C)(=O)=O)c1ccccc1` (single isomer, unassigned; (-)) [Compound b, (−)-N-[5-(2-Methanesulfonylaminoethyl)-5-phenyl-4-propionyl-4,5-dihydro-1,3,4-thiadiazol-2-yl]-2,2-dimethylpropanamide], the GI50 [2] is reported as less than 0.1 µM, the GI50 [3] is reported as less than 10 µM and the GI50 [4] is reported as less than 10 µM. For the same compound, the GI50 [6] was less than 10 µM, the GI50 [7] was less than 10 µM and the GI50 [8] was less than 10 µM. The “Inhibition” value [1] was “inhibited the ATPase activity of Eg5 in a concentration-dependent manner”, the IC50 [1] was less than 0.1 µM and the GI50 [9] was less than 10 µM. For the same compound, the GI50 [10] was less than 10 µM, the GI50 [11] was less than 10 µM and the GI50 [12] was less than 10 µM.

`CC(C)(C)C(=O)N1N=C(N2CCCC2=O)SC1(CCNS(C)(=O)=O)c1ccccc1` (single isomer, unassigned; (-)) [Compound c, (−)-N-{2-[3-(2,2-Dimethylpropionyl)-5-(2-oxopyrrolidin-1-yl)-2-phenyl-2,3-dihydro-1,3,4-thiadiazol-2-yl]ethyl}methanesulfonamide] gave a melting point of 107 to 110 °C.

For `CC(=O)N1N=C(NC(=O)C(C)(C)C)SC1(CCNS(C)(=O)=O)c1ccccc1` (single isomer, unassigned; (-)) [Compound f, (−)-N-[4-Acetyl-5-(2-methanesulfonylaminoethyl)-5-phenyl-4,5-dihydro-1,3,4-thiadiazol-2-yl]-2,2-dimethylpropanamide], the melting point was 187 to 190 °C.

`CC(=O)N1N=C(N2CCCCC2=O)SC1(CCNS(C)(=O)=O)c1ccccc1` (single isomer, unassigned; (-)) [Compound h, (−)-N-{2-[3-Acetyl-5-(2-oxopiperidino)-2-phenyl-2,3-dihydro-1,3,4-thiadiazol-2-yl]ethyl}methanesulfonamide] showed a GI50 [2] of less than 0.1 µM, a GI50 [3] of less than 10 µM and a melting point of 169 to 171 °C. For the same compound, the GI50 [4] was less than 10 µM, the GI50 [6] was less than 10 µM and the GI50 [7] was less than 10 µM. For the same compound, the GI50 [8] was less than 10 µM, the “Inhibition” value [1] was “inhibited the ATPase activity of Eg5 in a concentration-dependent manner” and the IC50 [1] was less than 0.1 µM. It also gave a GI50 [9] of less than 10 µM, a GI50 [10] of less than 10 µM and a GI50 [11] of less than 10 µM. The GI50 [12] was less than 10 µM.

`CCNCCS(=O)(=O)NCC1(c2ccccc2)SC(NC(=O)C(C)(C)C)=NN1C(=O)C(C)(C)C` (single isomer, unassigned; (-)) [Compound l, (−)-N-[4-(2,2-Dimethylpropionyl)-5-(2-ethylaminoethanesulfonylamino-methyl)-5-phenyl-4,5-dihydro-1,3,4-thiadiazol-2-yl]-2,2-dimethylpropanamide] gave a GI50 [2] of less than 0.1 µM, a GI50 [3] of less than 10 µM and a GI50 [4] of less than 10 µM. The GI50 [5] was less than 10 µM, the GI50 [6] was less than 10 µM and the GI50 [7] was less than 10 µM. For the same compound, the GI50 [8] was less than 10 µM, the “Inhibition” value [1] was “inhibited the ATPase activity of Eg5 in a concentration-dependent manner” and the IC50 [1] was less than 0.1 µM. The GI50 [9] was less than 10 µM, the GI50 [10] was less than 10 µM and the GI50 [12] was less than 10 µM.

Work on `CC(=O)N1N=C(N2CCCC2=O)SC1(CCNS(C)(=O)=O)c1ccccc1` (stereo not shown) [Compound g, N-{2-[3-Acetyl-5-(2-oxopyrrolidin-1-yl)-2-phenyl-2,3-dihydro-1,3,4-thiadiazol-2-yl]ethyl}methanesulfonamide] yielded a melting point of 137 to 140 °C.

In the case of `CC(C)(C)C(=O)NC1=NN(C(=O)C(C)(C)C)C(CN)(c2ccccc2)S1` (stereo not shown) [Compound j, N-[5-Aminomethyl-4-(2,2-dimethylpropionyl)-5-phenyl-4,5-dihydro-1,3,4-thiadiazol-2-yl]-2,2-dimethylpropanamide], the GI50 [2] is reported as less than 0.1 µM, the GI50 [6] is reported as less than 10 µM and the GI50 [7] is reported as less than 10 µM.
